Measured values from patent US20030157715A1, “Modulation of chromosome function by chromatin remodeling agents” (priority 2000, published 2003).

Columns and labels:
Drosophila histone SAR = assay: DNase I footprinting on SAR probe; format: binding; conditions: for Ratio: Kdapp W9 / Kdapp SAR (SAR specificity factor); for Kd: apparent binding affinity, DNase I footprinting, SAR probe, read-out: Kdapp SAR
Procedure: (§1) Synthetic oligonucleotides […] and […] were hybridized to obtain the W9 probe, oligomerized by ligation and digested with BamHI and BglII to obtain different tandem repeats. The following oligonucleotides were prepared identically: GAF31 is composed of the oligonucleotides […] and […] and, BrownI of oligonucleotides […] and […]. Fragments were purified on low-melt agarose gels and then cloned into a modified pSP64 vector, cut by BamHI and BglII. End-labeling was carried out following digestion with HindIII and a fill-in reaction with Klenow DNA polymerase. The labeled plasmid was cut with PvuII and the target fragments purified from low-melting agarose gels. The 657 bp EcoR1/Hinf1 fragment of the Drosophila histone SAR was cloned into the SmaI site of the modified pSP64 plasmid. This SAR probe was end-labeled following-digestion with EcoR1, then cut with ClaI and the resulting 347 bp fragment purified from low-melting agarose gels.
(§2) All reactions were performed in a total volume of 40 μl. A polyamide stock solution or buffer (for reference lanes) was added to an assay buffer containing 20 kcpm radiolabeled DNA, affording final concentrations of 10 mM Tris-HCl (pH 7.4), 10 mM KCl, 10 MM MgCl, 5 mM CaCl2, 0.5 mM EDTA, 0.5 mM EGTA, 1 mM DTT and 0.1% digitonine. The solutions were allowed to equilibrate for at least 2 h at room temperature. Footprinting reactions were initiated by the addition of 2 μl of a DNase stock solution (containing −100 μg DNase I in buffer) and allowed to proceed for 2 min at room temperature. The reactions were stopped by addition of 10 μl of a solution containing 1.25 M NaCl, 100 mM EDTA. Next, 5 μl of a 1% SDS solution was added, followed by 2 μl of a solution containing 1 μg poly(dA-dT), 1 μg salmon sperm DNA and 10 μg glycogen and the DNA was ethanol precipitated (20 min at −20 C.). The reactions were resuspended in 4 μl of 80% formamide loading buffer, denatured 10 min at 85 C., cooled on ice and electrophoresed on 8% polyacrylamide denaturing gels (5% cross-link, 8 M urea) at 30 W for 1 h. The gels were dried and exposed o/n at −70 C.

[1] = target: W9 probe (tandem repeats of an oligonucleotide with a 9 bp AT-tract); assay: DNase I footprinting on probe W9; format: binding; conditions: apparent binding affinity, DNase I footprinting, probe W9; read-out: Kdapp W9
Source text: DNase I cleavage pattern in the presence of P9 and P7. Ligand concentrations are indicated at the top of each lane. The position of each of the AT-tracts is indicated by square brackets. […] This probe is composed of head-to-tail tandem repeats of an oligonucleotide with a 9 bp AT-tract.
as §1, §2

[2] = tested on: satellite III chromatin in Kc nuclei; conditions: previously reported (Kas and Laemmli, 1992); cited from earlier work
[3] = tested on: DNA satellites in Kc nuclei and polytene chromosomes; assay: Staining of Kc nuclei and polytene chromosomes with fluorescent polyamides; design: species or system Drosophila; conditions: isolated Kc nuclei and polytene chromosomes
Procedure: Kc Drosophila nuclei were isolated (Mirkovitch et al., 1984), diluted into XBE (10 mM Hepes, pH 7.7, 2 mM MgCl2, 0.1 mM CaCl2, 100 mM KCl, 5 mM EGTA and 50 mM sucrose), fixed with 0.8% fresh paraformaldehyde for 15 minutes and spun onto a round coverslip (10 mm) as described previously (Boy de la Tour and Laemmli, 1988). For washing and staining, coverslips were floated on 60 μl drops of XBE deposited on […]. After centrifugation coverslips were washed twice (1 minute), stained for 60 minutes, washed four times (1 minute) and then mounted in PPDI (5 mM Hepes pH 7.8, 100 mM NaCl, 20 mM KCl, 1 mM EGTA, 10 mM Mg SO4, 2 mM CaCl2, 78% glycerol, 1 mgr/ml paraphenylene diamine). FIG. (4) panel A was stained with 0.5 μM […] and 15 μM ethidium bromide (EB). Kc nuclei and polytene chromosomes were stained with fluorescent polyamides as described elsewhere (Janssen et al., 2000). For immunofluorescence, polytene glands were carefully dissected from bw^D or Canton S. flies in 1× PBS as described (Ashburner, 1989) Whole glands in sol P (1×PBS supplemented with 1 mM MgCl2 and 0.1% digitonin) were then incubated for 60 minutes with various concentrations of either P31, P9 or no compound at room temperature. P31 (not P9) induced redistribution of GAF during this incubation step. […] Images were recorded with a wide field, deconvolution-type imaging system from DeltaVision.

Row | Ratio (Drosophila histone SAR) | Kd (Drosophila histone SAR) | Kd [1] | increase of SAR specificity upon fluorescein tagging (Drosophila histone SAR; tagged versus untagged compound) | Compound | chromatin opening at satellite III by distamycin [2] | main nuclear targets by epifluorescence staining [3]
1 | 2.3 | 35 nM | 80 nM |  | CN(C)CCCNC(=O)CCNC(=O)c1cc(NC(=O)c2cc(NC(=O)c3cc(NC(=O)c4cc(NC(=O)c5cccn5C)cn4C)cn3C)cn2C)cn1C [Compound P10, (Py)5βDp] |  | 
2 | 0.8 | 1.25 nM | 1 nM |  | CN(C)CCCNC(=O)CCNC(=O)c1cc(NC(=O)c2cc(NC(=O)c3cc(NC(=O)CCNC(=O)c4cc(NC(=O)c5cc(NC(=O)c6cc(NC(=O)CCNC(=O)c7cc(NC(=O)c8cc(NC(=O)c9cccn9C)cn8C)cn7C)cn6C)cn5C)cn4C)cn3C)cn2C)cn1C [Compound P13, ((Py)3β)3Dp] |  | 
3 |  |  |  |  | Cn1cc(NC(=O)c2cc(NC(=O)c3cc(NC=O)cn3C)cn2C)cc1C(=O)NCCC(=N)N [distamycin] | causes opening of the chromatin fiber | 
4 | 4 | 1 nM | 4 nM | about 4 fold | (Py)3β(Py)3βD* [Compound P9F] |  | targets primarily satellite I and III
5 | 2.5 | 1200 nM | 3000 nM |  | F*γ(Py)5βDp [Compound P10F] |  | 
